Test results from patent publication US12600727B2, “Treatment of infections of toxoplasma gondii and closely related parasites” (WASHINGTON UNIVERSITY, priority 2018, dated 2026).
Like-named read-outs stand apart in the source and are kept apart here.

What was measured:
[1] = test system: Toxoplasma gondii tachyzoites (ME49-FLUC, type 2); experiment: T. gondii ME49-FLUC tachyzoite growth inhibition in HFF, luciferase assay; type: cell-based; conditions: T. gondii ME49-FLUC (type 2) tachyzoites in HFF
Description: Toxoplasma gondii tachyzoites (ME49-FLUC, type 2) (27) were serially passaged in human foreskin fibroblasts (HFF) cultured in complete DMEM medium (DMEM supplemented with 10% fetal bovine serum (FBS), glutamine (10 mM) and gentamycin (10 μg/mL)). For each assay described, infected monolayers were scraped, needle passed (23 ga), and parasites were separated from host cell debris using a three (3) micron pore polycarbonate filter. HeLa cells were cultured in MEM media that contained 10% FBS, 4 mM L-glutamine and 10 mM HEPES solution. Cell culture and assays were conducted using a 37° C. incubator with 5% CO2. Cell cultures were negative for mycoplasma, as determined using the e-Myco plus kit (Intron Biotechnology).
White, clear bottom 96-well assay plates were set up as described above with the following modifications. Only the inner 60 wells were used for the assay in order to reduce variability that results from evaporation during incubation. Dilution of compound stock is as described above, with all wells containing a final concentration of 0.1% DMSO. DMSO (vehicle control) and pyrimethamine (2.5 μM, positive control) were included in the outside wells of all plates as controls. Liquid handling (serial dilutions, compound dilutions, cell feeding, plate-to-plate transfers, etc.) utilized a Dual Pod Biomek FX. Luciferase assays were performed using the integrated and automated platform (Beckman Coulter). The SAMI EX software was used to design and execute the screening assay and enabled efficient and uniform assay execution across all the assay plates.

[2] = test system: Neospora caninum parasites (NC-1 strain); experiment: N. caninum (NC-1, lac-Z) growth inhibition in HFF, β-Gal assay; type: cell-based; conditions: 72 h
Description: Neospora caninum parasites (NC-1 strain) expressing a lac-Z transgene (1) were serially passaged as tachyzoites in human foreskin fibroblasts cultured in DMEM supplemented with 10% fetal bovine serum (FBS), glutamine (10 mM) and gentamycin (10 μg/mL). Mature cultures were scraped, syringe passed using a 25 g needle to release parasites, filtered through a 3 micron polycarbonate filter to remove host cell debris and counted prior to each assay. All cultures were maintained in a 37° C. incubator with 5% CO2 and were verified mycoplasma free using the e-Myco plus Mycoplasma PCR detection kit (Boca Scientific).
Compounds were prepared as 10 mM stock in 100% DMSO. Pyrimethamine (positive control) and DMSO were included as controls in all plates and all replicates. The EC50 values were determined using a 10-point dose response curve using a 2-fold dilution series from 5.0 μM to 0.01 μM across the plate. Experiments were conducted in 96-well plates containing confluent HFF cells. Each assay plate was inoculated with 1×10^3 parasites (100 μL) containing 100 μL of 2× compound and incubated for 72 h prior to preparation for the j-Gal assay as described in Seeber, F. et al., Gene 169 (1996): 39-45, hereby incorporated by reference in its entirety and particularly in relation to the β-Gal assay protocol. Briefly, culture medium was replaced, wells rinsed with 200 μL of PBS followed by incubation with 50 μL of lysis buffer (100 mM HEPES, 1 mM MgSO4, 1% Triton X-100, 5 mM DTT) for 10 min at 50° C.
EC50 values determined from 10-point dose response curve (5 μM-0.01 μM) and presented as the average of three biological replicates. Linear regression and dose response inhibition (log ([compound]) vs normalized response-variable slope) were performed with Prism 8 for Mac (Graphpad Software, Inc.) and both the fits and data are shown in FIG. 1. Values represent the average of three biological replicates each with two internal replicates and are plotted as mean±S.E.M.

[3] = N. caninum NC-1 lac-Z, 10-point dose response 5 μM-0.01 μM, average of three biological replicates, read-out: EC50

SMILES	EC50 [1] [nM]	EC50 [2, 3] [nM]	EC50 [2] [nM]
COc1ccc(NC(=O)N2CCCCN3[C@H](CO)[C@H](c4ccc(C#Cc5ccccc5)cc4)[C@]3(CO)C2)cc1 [Compound 11, (8R,9S,10S)-8,10-bis(hydroxymethyl)-N-(4-methoxyphenyl)-9-(4-(phenylethynyl)phenyl)-1,6-diazabicyclo[6.2.0]decane-6-carboxamide]	1690	–	–
COc1ccc(NC(=O)N2CCCCN3[C@H](CN4CCC4)[C@H](c4ccc(C#Cc5ccccc5)cc4)[C@@H]3C2)cc1 [Compound 17, (8R,9S,10S)-10-(azetidin-1-ylmethyl)-N-(4-methoxyphenyl)-9-(4-(phenylethynyl)phenyl)-1,6-diazabicyclo[6.2.0]decane-6-carboxamide]	442	–	–
COc1ccc(NC(=O)N2CCCCN3[C@@H](CO)[C@H](c4ccc(C#Cc5ccccn5)cc4)[C@@H]3C2)cc1 [Compound 13, (8R,9R,10R)-10-(hydroxymethyl)-N-(4-methoxyphenyl)-9-(4-(pyridin-2-ylethynyl)phenyl)-1,6-diazabicyclo[6.2.0]decane-6-carboxamide]	646	–	–
COc1ccc(NC(=O)N2CCCCN3[C@@H](C2)[C@@H](c2ccc(C#Cc4ccccc4)cc2)[C@@H]3CN(C)S(C)(=O)=O)cc1 [Compound 6, (8R,9R,10R)-N-(4-methoxyphenyl)-10-((N-methylmethylsulfonamido)methyl)-9-(4-(phenylethynyl)phenyl)-1,6-diazabicyclo[6.2.0]decane-6-carboxamide]	40	60	–
COc1ccc(NC(=O)N2CCCCCN3[C@H](CO)[C@H](c4ccc(C#Cc5ccccc5)cc4)[C@@H]3C2)cc1 [Compound 20, (9R,10R,11S)-11-(hydroxymethyl)-N-(4-methoxyphenyl)-10-(4-(phenylethynyl)phenyl)-1,7-diazabicyclo[7.2.0]undecane-7-carboxamide]	169	157	–
COc1ccc(NC(=O)N2CCCCN3[C@H](CO)[C@H](c4ccc(C#Cc5ccccc5C#N)cc4)[C@@H]3C2)cc1 [Compound 12, (8R,9R,10S)-9-(4-((2-cyanophenyl)ethynyl)phenyl)-10-(hydroxymethyl)-N-(4-methoxyphenyl)-1,6-diazabicyclo[6.2.0]decane-6-carboxamide]	213	–	–
COc1ccc(NC(=O)N2CCCCN3C[C@H](c4ccc(C#Cc5ccccc5)cc4)[C@@H]3C2)cc1 [Compound 16]	77	193	–
CCc1nc(N)nc(N)c1-c1ccc(Cl)cc1 [Pyrimethamine (Pyr), Pyrimethamine, reference compound]	–	–	263
COc1ccc(NC(=O)N2CCCCN3[C@H](CN(C)CCF)[C@H](c4ccc(C#Cc5ccccc5)cc4)[C@@H]3C2)cc1 [Compound 5, (8R,9S,10S)-10-(((2-fluoroethyl)(methyl)amino)methyl)-N-(4-methoxyphenyl)-9-(4-(phenylethynyl)phenyl)-1,6-diazabicyclo[6.2.0]decane-6-carboxamide]	89.5	–	–
COc1ccc(NC(=O)N2CCCCN3[C@H](CO)[C@H](c4ccc(C#Cc5ccccc5)cc4)[C@@H]3C2)cc1 [Compound 18, (8R,9R,10S)-10-(hydroxymethyl)-N-(4-methoxyphenyl)-9-(4-(phenylethynyl)phenyl)-1,6-diazabicyclo[6.2.0]decane-6-carboxamide]	28.9	–	–
OC[C@@H]1[C@H](c2ccc(C#Cc3ccccc3)cc2)[C@@H]2CN(c3nc4ccccc4s3)CCCCN12 [Compound 19, ((8R,9R,10S)-6-(benzo[d]thiazol-2-yl)-9-(4-(phenylethynyl)phenyl)-1,6-diazabicyclo[6.2.0]decan-10-yl)methanol]	3940	–	–
O=C(Nc1cccc(F)c1)N1CCCCN2[C@H](CO)[C@H](c3ccc(C#Cc4cccnc4)cc3)[C@@H]2C1 [Compound 10, (8R,9R,10S)-N-(3-fluorophenyl)-10-(hydroxymethyl)-9-(4-(pyridin-3-ylethynyl)phenyl)-1,6-diazabicyclo[6.2.0]decane-6-carboxamide]	493	–	–
COC[C@@H]1[C@H](c2ccc(C#Cc3ccccc3)cc2)[C@@H]2CN(C(=O)Nc3ccc(OC)cc3)CCCCN12 [Compound 9, (8R,9R,10S)-10-(methoxymethyl)-N-(4-methoxyphenyl)-9-(4-(phenylethynyl)phenyl)-1,6-diazabicyclo[6.2.0]decane-6-carboxamide]	50.4	–	–
COc1ccc(NC(=O)N2C[C@H](O)[C@H](O)CN3[C@H](CN(C)C)[C@H](c4ccc(C#Cc5ccccc5)cc4)[C@@H]3C2)cc1 [Compound 8, (3R,4S,8R,9S,10S)-10-((dimethylamino)methyl)-3,4-dihydroxy-N-(4-methoxyphenyl)-9-(4-(phenylethynyl)phenyl)-1,6-diazabicyclo[6.2.0]decane-6-carboxamide]	39.3	30	–
COc1ccc(NC(=O)N2CCCCN3[C@H](CO)[C@H](c4ccc(C#CC5CC5)cc4)[C@@H]3C2)cc1 [Compound 7, (8R,9R,10S)-9-(4-(cyclopropylethynyl)phenyl)-10-(hydroxymethyl)-N-(4-methoxyphenyl)-1,6-diazabicyclo[6.2.0]decane-6-carboxamide]	1610	–	–
COc1ccc(NC(=O)N2CCCN3[C@H](CO)[C@H](c4ccc(C#Cc5ccccc5)cc4)[C@@H]3C2)cc1 [Compound 21, (7R,8R,9S)-9-(hydroxymethyl)-N-(4-methoxyphenyl)-8-(4-(phenylethynyl)phenyl)-1,5-diazabicyclo[5.2.0]nonane-5-carboxamide]	1750	–	–
COc1ccc(NC(=O)N2CCCCN3[C@H](COCCC(=O)O)[C@H](c4ccc(C#Cc5ccccc5)cc4)[C@@H]3C2)cc1 [Compound 2, 3-(((8R,9R,10S)-6-((4-methoxyphenyl)carbamoyl)-9-(4-(phenylethynyl)phenyl)-1,6-diazabicyclo[6.2.0]decan-10-yl)methoxy)propanoic acid]	64.3	–	–
O=C(NC1CCC1)N1CCCCN2[C@H](CO)[C@H](c3ccc(C#Cc4ccccc4)cc3)[C@@H]2C1 [Compound 3, (8R,9R,10S)-N-cyclobutyl-10-(hydroxymethyl)-9-(4-(phenylethynyl)phenyl)-1,6-diazabicyclo[6.2.0]decane-6-carboxamide]	2580	–	–
CN(C[C@@H]1[C@H](c2ccc(C#Cc3ccccc3)cc2)[C@@H]2CN(C(=O)Nc3ccc(OC4CC4)cc3)CCCCN12)S(C)(=O)=O [Compound 14, (8R,9R,10S)-N-(4-cyclopropoxyphenyl)-10-((N-methylmethylsulfonamido)methyl)-9-(4-(phenylethynyl)phenyl)-1,6-diazabicyclo[6.2.0]decane-6-carboxamide]	18.5	37	–
COc1ccc(NC(=O)N2CCCCN3[C@H](CN4CCN(C)CC4)[C@H](c4ccc(C#Cc5ccccc5)cc4)[C@@H]3C2)cc1 [Compound 1, (8R,9S,10S)-N-(4-methoxyphenyl)-10-((4-methylpiperazin-1-yl)methyl)-9-(4-(phenylethynyl)phenyl)-1,6-diazabicyclo[6.2.0]decane-6-carboxamide]	425	–	–
COc1ccc(NC(=O)N2CCCCN3[C@H](CN(C)S(C)(=O)=O)[C@H](c4ccc(C#Cc5ccccc5)cc4)[C@@H]3C2)cc1 [Compound 4, (8R,9R,10S)-N-(4-methoxyphenyl)-10-((N-methylmethylsulfonamido)methyl)-9-(4-(phenylethynyl)phenyl)-1,6-diazabicyclo[6.2.0]decane-6-carboxamide]	34.8	–	–
